Test [1] has as its target T1, β1c (Homo sapiens, UniProt P28072+Q99436).
T1 construct: protease activity associated with the proteasome complex in cultured cells; endogenous in cells; host or cells: Ramos cells
Nature of the test: Cell-Based Proteasome Activity/Selectivity Assay (Ramos cells), substrate (LLE)2 Rh110. As to conditions: highest concentration tested 20 μM. The source says:
(§1) Cell-Based Proteasome Activity/Selectivity Assay
(§2) The Cell-Based Proteasome subunit activity/selectivity assay was a panel of 5 fluorogenic assays that independently measured the activity of β5c or β5i (chymotrypsin-like activity), β2c/2i (trypsin-like), and β1c or β1i (caspase-like) protease activity associated with the proteasome complex in cultured cells. Specifically, the following substrates were used for respective subunit activities: β1i: (PAL)2Rh110, β1c: (LLE)2 Rh110, β2c/2i: (KQL)2Rh110, β5c: (WLA)2Rh110, β5i: (ANW)2Rh110. The following procedure was followed:
(§3) Cell preparation: Plated 25 μl of Ramos cells (2×10^6/ml in DPBS) into half area plate (PerkinElmer Cat 6005569) to final 5×10^4 cells/well. Added 0.5 μl of 100×4-fold serial diluted test compounds or DMSO to each well. Highest concentration of compound tested was 20 μM, thus compound serial dilution started from […]. Incubated for 30 minutes at 37° C. Then equilibrated at room temperature for 15 minutes. Added 25 μl of 2× reaction mix consisting of 0.025% digitonin, 20 μM of each substrates and 0.5M sucrose in DPBS. Shaked for one minute @ 700 rpm. Incubated for 120 min at room temperature. Then read the plates with an Envision multilabel plate reader (PerkinElmer) with 500 nm excitation/519 nm emission.

Test [2] addresses T2, β1i (Homo sapiens, UniProt P28065+P40306).
T2 construct: protease activity associated with the proteasome complex in cultured cells; endogenous in cells; host or cells: Ramos cells
Nature of the test: Cell-Based Proteasome Activity/Selectivity Assay (Ramos cells), substrate (PAL)2Rh110. As to conditions: highest concentration tested 20 μM.
Source text: as §1, §2, §3

The target in test [3] is T3, β5i (Homo sapiens, UniProt P20618+P28062).
T3 construct: protease activity associated with the proteasome complex in cultured cells; endogenous in cells; host or cells: Ramos cells
The test is described as follows: Cell-Based Proteasome Activity/Selectivity Assay (Ramos cells), substrate (ANW)2Rh110. The settings on record: highest concentration tested 20 μM, read-out: Ic50 ramos:ac-(anw)2-r110.
Source text: as §1, §2, §3

The subject of test [4] is IP10 level in PBMCs stimulated with CpG Type A. Nature of the test: PBMC IP-10 Assay. Type of test: cell-based. As to conditions: CpG Type A 2.5 μM. The method, then:
PBMCs were isolated from whole blood as follows: Blood was collected in a sterile environment in heparinized tubes. Blood was diluted with an equal volume PBS/2% FCS and 30 ml of this mixture was added to ACCUSPIN tubes containing 15 ml Histopaque-1077 already centrifuged at 800 g for 30 seconds and warmed up at room temperature. The tubes were then centrifuged at 800 g for 20 minutes at room temperature with no brake. The mononuclear band, just above the polyethylene frit, was removed by Pasteur pipet. These mononuclear cells were washed three times with sterile PBS, counted, and resuspended in RPMI 1640 supplemented with 10% heat inactivated fetal calf serum, 10 mM HEPES, 1 mM sodium pyruvate, penicillin (50 U/ml), streptomycin (50 μg/ml) and glutamine (2 mM) to approximately 1.5×10^6/ml. Approximately 2×10^5 cells/well were plated in 96 well tissue culture plates (BD Falcon 353072), and preincubated 60 mi/37° C. with a titration of compounds, in a final concentration of 1% DMSO. Cells were then stimulated with CpG Type A (Invivogen, Cat #tlrl-2216; ODN 2216) at a final concentration of 2.5 μM. Cells were incubated overnight, and supernatants were removed. PBMC viability of cells remaining in the well was measured with ATPlite luminescence assay (Perkin-Elmer) per the manufacturer's instructions. Luminescence was measured on the Perkin-Elmer Envision, using the luminescence filter. IP10 level was measured with CXCL10/IP10 AlphaLISA kit (Perkin-Elmer) per the manufacturer's instructions, except halving all volumes. Fluorescence was measured on the Envision Multilabel plate reader, using the AlphaScreen standard settings.

Test [5] deals with T4, β5c (Homo sapiens, UniProt P20618+P28074).
T4 construct: protease activity associated with the proteasome complex in cultured cells; endogenous in cells; host or cells: Ramos cells
The test is described as follows: Cell-Based Proteasome Activity/Selectivity Assay (Ramos cells), substrate (WLA)2Rh110. As to conditions: highest concentration tested 20 μM.
Source text: as §1, §2, §3

In test [6] the test system is β2c/2i. Nature of the test: Cell-Based Proteasome Activity/Selectivity Assay (Ramos cells), substrate (KQL)2Rh110. As to conditions: highest concentration tested 20 μM.
Source text: as §1, §2, §3

As for `C[C@H](NC(=O)OCc1ccccc1)C(=O)NC(CC1CCOCC1)C(=O)N[C@@H](Cc1ccccc1)C(=O)C(=O)NCc1ccccc1` (stereo partly drawn) [Example 56, {(S)-1-[1-((S)-1-Benzyl-2-benzylcarbamoyl-2-oxo-ethylcarbamoyl)-2-(tetrahydro-pyran-4-yl)-ethylcarbamoyl]-ethyl}-carbamic acid benzyl ester], the IC50 (in general, the concentration needed to halve the response being measured) was over 20000 nM in test [1]; 879 nM in test [2]; 115 nM in test [3]; 3120 nM in test [5]; over 20000 nM in test [6]. Further, the EC50 – broadly, the concentration at which the effect is half-maximal – in test [4] is 3230 nM.
Turning to `C[C@H](NC(=O)N1Cc2ccccc2C1)C(=O)N[C@@H](Cc1ccccc1)C(=O)N[C@@H](Cc1ccccc1)C(=O)C(=O)NCc1ccccc1` [Example 52, 1,3-Dihydro-isoindole-2-carboxylic acid {(S)-1-[(S)-1-((S)-1-benzyl-2-benzylcarbamoyl-2-oxo-ethylcarbamoyl)-2-phenyl-ethylcarbamoyl]-ethyl}-amide], the 50% inhibitory concentration (IC50) in test [1] was 10300 nM; in test [2], 1530 nM; in test [3] it was 221 nM; in test [5] it was 2350 nM; in test [6] it was over 20000 nM. This molecule also came in with an EC50 in test [4] of 4500 nM.
Turning to `CCCC[C@H](NC(=O)[C@H](Cc1ccc(OC)cc1)NC(=O)[C@H](C)NC(=O)CN1CCOCC1)C(=O)C(=O)NCc1ccccc1` [Example 3, (S)-3-{(S)-3-(4-Methoxy-phenyl)-2-[(S)-2-(2-morpholin-4-yl-acetylamino)-propionylamino]-propionylamino}-2-oxo-heptanoic acid benzylamide], the IC50 in test [1] was over 20000 nM; in test [2], 560 nM; in test [3], 394 nM; in test [5] it was 3200 nM; in test [6], over 20000 nM. The molecule further registered an EC50 in test [4] of 7960 nM.
In the case of `COc1ccc(C[C@H](NC(=O)[C@H](C)NC(=O)c2cnccn2)C(=O)N[C@@H](Cc2ccccc2)C(=O)C(=O)NCc2ccccc2)cc1` [Example 29, Pyrazine-2-carboxylic acid {(S)-1-[(S)-1-((S)-1-benzyl-2-benzylcarbamoyl-2-oxo-ethylcarbamoyl)-2-(4-methoxy-phenyl)-ethylcarbamoyl]-ethyl}-amide], the IC50 in test [1] turned out to be 5620 nM; in test [2], 218 nM; in test [3], 275 nM; in test [5] it was 2060 nM; in test [6], 11900 nM. The same molecule had an EC50 in test [4] of 4170 nM.
As to `COc1ccc(C[C@H](NC(=O)[C@H](C)NC(=O)C2=C(C)c3ccccc3C2)C(=O)N[C@@H](Cc2ccccc2)C(=O)C(=O)NCc2ccccc2)cc1` [Example 25, 3-Methyl-1H-indene-2-carboxylic acid {(S)-1-[(S)-1-((S)-1-benzyl-2-benzylcarbamoyl-2-oxo-ethylcarbamoyl)-2-(4-methoxy-phenyl)-ethylcarbamoyl]-ethyl}-amide], the half-inhibitory concentration (IC50) in test [1] is over 20000 nM; in test [2], over 20000 nM; in test [3] it was 9 nM; in test [5], 846 nM; in test [6], over 20000 nM. In test [4], this molecule had an EC50 of 1080 nM.
On to `C[C@H](NC(=O)c1ccnn1C)C(=O)N[C@@H](Cc1c[nH]c2ccccc12)C(=O)N[C@@H](Cc1ccccc1)C(=O)C(=O)NCc1ccccc1` [Example 30, 2-Methyl-2H-pyrazole-3-carboxylic acid {(S)-1-[(S)-1-((S)-1-benzyl-2-benzylcarbamoyl-2-oxo-ethylcarbamoyl)-2-(1H-indol-3-yl)-ethylcarbamoyl]-ethyl}-amide], for which the IC50 in test [1] came to 12500 nM; in test [2] it was 569 nM; in test [3] it was 47 nM; in test [5], 2480 nM; in test [6] it was 10000 nM. In addition, in test [4], the EC50 was 4090 nM.
With `COc1ccc(C[C@H](NC(=O)C2(NC(=O)OCc3ccccc3)CC2)C(=O)N[C@@H](Cc2ccccc2)C(=O)C(=O)NCc2ccccc2)cc1` [Example 28, {1-[(S)-1-((S)-1-Benzyl-2-benzylcarbamoyl-2-oxo-ethylcarbamoyl)-2-(4-methoxy-phenyl)-ethylcarbamoyl]-cyclopropyl}-carbamic acid benzyl ester], the IC50 in test [1] was over 20000 nM; in test [2], 4740 nM; in test [3] it was 294 nM; in test [5], 5110 nM; in test [6], over 20000 nM. In addition, the EC50 in test [4] worked out at 2790 nM.
As to `COc1ccc(C[C@H](NC(=O)[C@H](C)NS(=O)(=O)c2ccccc2C)C(=O)N[C@@H](Cc2ccccc2)C(=O)C(=O)NCc2ccccc2)cc1` [Example 40, (S)—N-Benzyl-3-{(S)-3-(4-methoxy-phenyl)-2-[(S)-2-(toluene-2-sulfonylamino)-propionylamino]-propionylamino}-2-oxo-4-phenyl-butyramide], the IC50 in test [1] was 14700 nM; in test [2], 1140 nM; in test [3] it was 46 nM; in test [5], 1290 nM; in test [6], over 20000 nM. The EC50 in test [4] was found to be 1830 nM.
`C[C@H](NC(=O)OCc1ccccc1)C(=O)N[C@@H](Cc1c[nH]c2ccccc12)C(=O)N[C@@H](Cc1ccccc1)C(=O)C(=O)NCc1ccccc1` [Example 16, {(S)-1-[(S)-1-((S)-1-Benzyl-2-benzylcarbamoyl-2-oxo-ethylcarbamoyl)-2-(1H-indol-3-yl)-ethylcarbamoyl]-ethyl}-carbamic acid benzyl ester]: the IC50 is 18300 nM in test [1]; 274 nM in test [2]; 17 nM in test [3]; 926 nM in test [5]; over 20000 nM in test [6]. The EC50 in test [4] was determined as 1330 nM.
In the case of `C[C@H](NC(=O)OCc1ccccc1)C(=O)N[C@@H](Cc1ccncc1)C(=O)N[C@@H](Cc1ccccc1)C(=O)C(=O)NCc1ccccc1` [Example 58, {(S)-1-[(S)-1-((S)-1-Benzyl-2-benzylcarbamoyl-2-oxo-ethylcarbamoyl)-2-pyridin-4-yl-ethylcarbamoyl]-ethyl}-carbamic acid benzyl ester], the IC50 in test [1] was over 20000 nM; in test [2] it was 478 nM; in test [3], 30 nM; in test [5] it was 960 nM; in test [6], over 20000 nM. In addition, in test [4], a half-maximal response (EC50) required 1330 nM.
Consider `C[C@H](NC(=O)CN1CCOCC1)C(=O)N[C@@H](Cc1c[nH]c2ccccc12)C(=O)N[C@@H](Cc1ccccc1)C(=O)C(=O)NCc1ccccc1` [Example 22, (S)—N-Benzyl-3-{(S)-3-(1H-indol-3-yl)-2-[(S)-2-(2-morpholin-4-yl-acetylamino)-propionylamino]-propionylamino}-2-oxo-4-phenyl-butyramide], for which the IC50 is over 20000 nM in test [1]; 1100 nM in test [2]; 124 nM in test [3]; 3300 nM in test [5]; over 20000 nM in test [6]. Besides, in test [4], the EC50 turned out to be 5780 nM.
Take `COc1ccc(C[C@H](NC(=O)[C@H](C)NS(=O)(=O)c2ccccc2)C(=O)N[C@@H](Cc2ccccc2)C(=O)C(=O)NCc2ccccc2)cc1` [Example 39, (S)-3-[(S)-2-((S)-2-Benzenesulfonylamino-propionylamino)-3-(4-methoxy-phenyl)-propionylamino]-N-benzyl-2-oxo-4-phenyl-butyramide]: the IC50 in test [1] is over 20000 nM; in test [2], 605 nM; in test [3], 29 nM; in test [5], 1380 nM; in test [6] it was over 20000 nM. Further, in test [4], the EC50 is 2320 nM.

For the origin of these results see patent publication US20150274777A1, “KETOAMIDE IMMUNOPROTEASOME INHIBITORS” (HOFFMANN-LA ROCHE INC., priority 2012, published 2015).
